The values below come from publication PMC4387272, “Pharmacokinetic, pharmacodynamic and biomarker evaluation of transforming growth factor-β receptor I kinase inhibitor, galunisertib, in phase 1 study in patients with advanced cancer” (Investigational new drugs, 2014).

Read-outs that look alike come from different tables or passages of the source.

Data set [1] relates to pSMAD2 in peripheral blood mononuclear cells (PBMCs). Put plainly: pSMAD2 ELISA in peripheral blood mononuclear cells of treated patients. It counts as in vivo, Human. The following applies: for inhibition at 160 mg: Homo sapiens, PBMC, 160 mg/day cohort (Part A). Here is the method: pSMAD2 in peripheral blood mononuclear cells (PBMCs) were assessed by a specific ELISA as previously described, in which a rabbit polyclonal antibody recognizing pSMAD2 was used. Total SMAD2 was also assessed and used to normalize the expression of pSMAD2.
A power model was fitted to PK parameter estimates Cmax and AUC(0–24) to assess the extent of dose proportionality. Clinical benefit in this study has been defined as a patient with either a complete response (CR), partial response (PR), and stable disease (SD) ≥6 cycles. MAIP results from plasma samples taken at baseline were compared between patients completing >6 cycles and ≤6 cycles using ANOVA. The analysis included controlling the false discovery rate to 30 % using the Benjamini-Hochberg method. Boxplots showing the distributions at baseline of the potentially prognostic markers are provided. Observed TGF-β-stimulated pSMAD2 (pSMAD2^+) in PBMCs was normalized by TGF-β-stimulated tSMAD2 [(tSMAD2^+) ^0.6[9, 10]] prior to determining the minimum normalized pSMAD2^+ and calculating percentage inhibition post-baseline for each patient. Baseline and minimum post-baseline values for each patient together with maximum percentage inhibition are presented on a line and scatter plot for each patient in Cohort 3 and summary statistics by time point provided from a standard mixed effects regression model, fitting log normalized pSMAD2^+ to the fixed effects of log baseline normalized pSMAD2^+, nominal time point, dose and their interaction and patient as a random effect.
Using an ELISA to detect changes of pSMAD2 in isolated PBMCs as a PD response marker, we observed changes after galunisertib administration. […] In 11 of the 14 patients, pSMAD2 inhibition was assessed at the observed maximum concentration for galunisertib about 2–6 h after administration on Day 14 of the first cycle. In 6 of the 11 patients, pSMAD2 levels were reduced in relationship to drug concentration, while in the remaining 5 patients, there was no relationship at the expected Cmax (Fig. 2a). […] Once the drug was stopped after 14 days of administration, pSMAD2 changes were assessed for the next 3 days in 2 patients, one in Cohort 1 and 1 in Cohort 3 (Fig. 2c and d). The pSMAD2 inhibition was still present although drug levels were low or undetectable. The mean of the observed percentage inhibition of normalized pSMAD2^+ from Cycle 1 Day 1 and Day 12 for Cohort 3 together with the estimated means from the model are provided in Table 2.
Background: An ELISA detects its analyte on a solid surface through an enzyme-linked reagent.

On the set-up of data set [2]: method as in PMID 24868575. The following applies: population PK model, Cohorts 1 through 5; cited from earlier work.

As a reminder, the inhibition is the drop in the measured response relative to a control, in per cent. For the compound `Cc1cccc(-c2nn3c(c2-c2ccnc4ccc(C(N)=O)cc24)CCC3)n1` [galunisertib], the “patients with a reduction in pSMAD2 in PBMCs” value in data set [1] (Cohort 3 (160 mg/day), 9 of 14 patients, first 14 days of treatment) came out at 64%. In data set [1] (Cohort 3, end of 14 days of treatment, PBMCs), the “mean percentage inhibition of pSMAD2” value is given as “approximately 40%”. Besides, the “patients with pSMAD2 levels reduced in relationship to drug concentration” value in data set [1] (Cohort 3, of 11 patients assessed about 2–6 h after administration on Day 14 of first cycle) worked out at 6 patients. The inhibition at 160 mg is 27% in data set [1] (Day 1, 0.5 h, PBMCs, mixed-effects model, read-out: Fitted Percentage Inhibition of Normalized pSMAD2); 26% in data set [1] (Day 1, 0.5 h, PBMCs, read-out: Observed Percentage Inhibition of Normalized pSMAD2); 5% in data set [1] (Day 1, 4 h, PBMCs, mixed-effects model, read-out: Fitted Percentage Inhibition of Normalized pSMAD2); 5% in data set [1] (Day 1, 4 h, PBMCs, read-out: Observed Percentage Inhibition of Normalized pSMAD2); -10% in data set [1] (Day 1, 6 h, PBMCs, mixed-effects model, read-out: Fitted Percentage Inhibition of Normalized pSMAD2); -10% in data set [1] (Day 1, 6 h, PBMCs, read-out: Observed Percentage Inhibition of Normalized pSMAD2). The inhibition at 160 mg in data set [1] (Day 12 or 15 post dose (2, 3, 4, 6 h), PBMCs, mixed-effects model, read-out: Fitted Percentage Inhibition of Normalized pSMAD2) was determined as 34%; in data set [1] (Day 12 or 15 post dose (2, 3, 4, 6 h), PBMCs, read-out: Observed Percentage Inhibition of Normalized pSMAD2), 39%. In data set [1] (next 3 days after 14 days of administration, 2 patients, drug levels low or undetectable), the “pSMAD2 inhibition after drug was stopped” value is listed as “still present”. Also, in data set [2], the “mean population CL” value is given as 38 L/h. Besides, the “steady state volume of distribution (Vss)” value in data set [2] was 210 L.
